Experimental data as given in PMC5218480 (PLoS ONE, 2017).

System: MV-4-11 cells
Assay: Gene expression microarray analysis (Affymetrix PrimeView) and GSEA
Assay type: cell-based, human
Details: ProbeSet 11717523_x_at; LIST B

`Nc1ncn([C@@H]2O[C@H](CO)[C@@H](O)[C@H]2O)c(=O)n1` [azacitidine] was tested. Which “RFU, TMEM50B” value did it give?
Its value is 81.58 RFU.
